Assay results reported in patent US20140051696A1, “THERAPIES FOR TREATING CANCER” (GILEAD CALISTOGA LLC, priority 2012, published 2014).
“Also recorded” adds a separate entry of the source. Read-outs that look alike come from different tables or passages of the source.

Columns and labels:
recurrent CLL = conditions: cited from earlier work; for median progression-free survival (PFS): patients with recurrent CLL
CCL2, CCL3, and CCL4 = assay: Chemokine release ELISA, CLL patient samples in conditioned media; format: cell-based, human; conditions: patient samples cultured in conditioned media; alone and in combination
Method: (§3) In this Example, CLL patient samples were assessed for growth inhibition, chemokine release, and pathway activation status using a tetrazolium-based MTS assay, ELISA, and flow cytometry, respectively. Peripheral blood mononuclear cells (PBMCs) were isolated from primary patient samples using a Ficoll-Paque gradient. […] 5×10^5 primary cells were cultured in triplicate in HS-5 stromal cell conditioned media and growth inhibition was determined after 72 hours.

[1] = Plasma pharmacokinetics in healthy human subjects, alone or in combination; conditions: for AUC / Cmax: human, Mean (% CV); for AUC: AUCtau
Method: On Day 1, PK samples were collected at pre-dose, 2, 4, 8, and 12 hours post dose. On Day 4, samples were collected relative to the AM dose of study drug(s) at the following time points: pre-dose, 1, 2, 2.5, 3, 4, 6, 8, 10, 12, 18, 24, 36, and 48 hours post dose. Trough PK samples were collected on Day 3 prior to dosing.

[2] = test system: AKT phosphorylation (S473) in CLL cells; assay: Flow cytometry phospho-Akt in CLL cells co-cultured with HS5 stromal cells; format: cell-based, human; conditions: CLL cells of 15 patients co-cultured with HS5 stromal cells
Description: (§1) Ficoll purified CLL cells obtained from 15 patients were co-cultured with HS5 stromal cells then treated with each compound alone or in combination. CLL cells were stained with anti-CD5-FITC and either anti-phospho-Akt S473 (Alexa Fluor 488), phospho-S6 or an […] control antibody (mouse IgG1-Alexa Fluor 488 conjugate, Cell Signaling) and analyzed by 2-color flow cytometry.

[3] = test system: S6 phosphorylation in CLL cells; assay: Flow cytometry phospho-S6 in CLL cells co-cultured with HS5 stromal cells; format: cell-based, human; conditions: CLL cells of 15 patients co-cultured with HS5 stromal cells
Description: as §1

[4] = test system: AKT phosphorylation (S473) in Ramos cells; assay: Immunoblot phospho-Akt in Ramos cells after anti-IgM BCR stimulation; format: cell-based, human; conditions: 1 uM each, IgM mediated BCR stimulation
Method: (§2) 5×10^6 Ramos (a Burkitt's cell line with intact BCR) were plated and treated with 1 uM of Compound A, 1 uM of Compound B, alone or in combination for 25 hours. Twenty μg Goat F(ab′)2 anti-human IgM (Invitrogen) was added to stimulate the BCR for 30 minutes. Protein were isolated and analyzed using immune-blotting with phospho-Akt (S473), phospho-Erk (T202/Y204), and phospho-S6.

[5] = test system: ERK phosphorylation (T202/Y204) in Ramos cells; assay: Immunoblot phospho-Erk in Ramos cells after anti-IgM BCR stimulation; format: cell-based, human; conditions: 1 uM each, IgM mediated BCR stimulation
Method: as §2

[6] = Safety and tolerability in healthy human subjects; conditions: for tolerability: over the dose range evaluated, healthy subjects
Description: The endpoints evaluated include AEs, physical examination and clinical laboratory test findings, 12-lead ECG abnormalities and interval measurements, and vitals signs measurements.
Safety data for each cohort was reviewed after the 10-day observation period following each 4 day treatment period. Subsequent treatments in each cohort were only initiated following post dose safety assessments.

primary CLL cells = assay: MTS cell viability assay of primary CLL cells in HS-5 conditioned media; conditions: Homo sapiens
Method: as §3
Peripheral blood (PB) or bone marrow (BM) was collected from 14 CLL patients with untreated, relapsed, or refractory diseases. Mononuclear cells were isolated using a Ficoll-Paque gradient and were plated in triplicate into 96-well containing HS-5 conditioned media plus equimolar concentrations of Compound A and Compound B (10 μM to 0.61 nM). After 72 hours, viability was determined by MTS assay (CellTiter 96, Promega).

WSU-FSCCL parental cells = assay: AlamarBlue growth inhibition, WSU-FSCCL parental cells; format: cell-based, human; conditions: initially, 72 hr
Method: The WSU-FSCCL parental cells were, initially, responsive to treatment of Compound A (FIG. 10A). […] Such cells were cultured and referred to as WSU-FSCCL resistant cells. This reflects a commonly observed clinical situation that patients become resistance or no longer respond to the existing treatment. Both the parental and the resistant cells of WSU-FSCCL were used in this study.
A 7× serial dilution of Compound A and Compound C from a stock of 10 mM (DMSO) was prepared using RPMI+10% FBS (270 μM). The WS-FSCCL cells were added with the compounds in the serial dilution and incubated at 37° C. for 72 hr, followed by the addition of 12.5 μL AlamarBlue (Invitrogen #DAL1100). Plates were then incubated at 37° C. for 4 hours.
The change of color from uptake of the stains in the living cells was measured for absorbance. Fluorescence Ex530, Em590, Cutoff570 on Spectramax M5 (Molecular Dynamics) were determined. To calculate the 50% inhibition of growth (GI50), the reading from the samples were compared to the controls (100% or 0% absorption).

[7] = test system: WSU-FSCCL resistant cells; assay: AlamarBlue growth inhibition, WSU-FSCCL resistant cells; format: cell-based, human; conditions: 72 hr
Method: The WSU-FSCCL parental cells were, initially, responsive to treatment of Compound A (FIG. 10A). […] Such cells were cultured and referred to as WSU-FSCCL resistant cells. This reflects a commonly observed clinical situation that patients become resistance or no longer respond to the existing treatment. Both the parental and the resistant cells of WSU-FSCCL were used in this study. […] The […] cells were added with the compounds in the serial dilution and incubated at 37° C. for 72 hr, followed by the addition of 12.5 μL AlamarBlue (Invitrogen #DAL1100). Plates were then incubated at 37° C. for 4 hours. The change of color from uptake of the stains in the living cells was measured for absorbance. Fluorescence Ex530, Em590, Cutoff570 on Spectramax M5 (Molecular Dynamics) were determined.

[8] = Compound B analyte, Compound B 200 mg + Compound A 100 mg vs Compound B 200 mg
[9] = Compound B analyte, Compound B 600 mg + Compound A 100/150 mg vs Compound B 600 mg
[10] = in vivo, 200 mg, Compound B analyte, Compound B 200 mg BID alone, fed (N = 8)
[11] = in vivo, 600 mg, Compound B analyte, Compound B 600 mg BID alone, fed (N = 16)
[12] = in vivo, Compound B analyte, Compound B 200 mg + Compound A 100 mg BID, fed (N = 8)
[13] = in vivo, Compound B analyte, Compound B 600 mg + Compound A 100/150 mg BID, fed (N = 14)
[14] = Compound A analyte, Compound A 150 mg + Compound B 600 mg vs Compound A 150 mg
[15] = Compound A analyte, Compound A 100 + Compound B 200 or 600 mg vs Compound A 100 mg
[16] = plasma, oral, 100 mg, Compound A analyte, Compound A 100 mg BID alone, fed (N = 16)
[17] = plasma, oral, 150 mg, Compound A analyte, Compound A 150 mg BID alone, fed (N = 7)
[18] = plasma, oral, Compound A analyte, Compound A 150 mg + Compound B 600 mg BID, fed (N = 6)
[19] = plasma, oral, Compound A analyte, Compound A 100 + Compound B 200 or 600 mg BID, fed (N = 16)

Molecule: rituximab
- median PFS (recurrent CLL; addition of high-dose methylprednisone to rituximab): 12 months

Molecule: c1cn2cc(-c3ccc4cn[nH]c4c3)nc(Nc3ccc(N4CCOCC4)cc3)c2n1 [Compound B, 6-(1H-indazol-6-yl)-N-(4-morpholinophenyl)imidazo[1,2-a]pyrazin-8-amine]
- production of CCL2, CCL3, and CCL4 by CLL cells (CCL2, CCL3, and CCL4): reduced
- Ctau, Mean (% CV) ([1]; Compound B analyte, Compound B 200 mg + Compound A 100 mg BID, fed (N = 8)): 380 (62) ng/ml
- AUCtau, % Geometric Least Squares Means Ratio (90% CI), Combination vs. Alone [1, 8]: 1.64 (1.41, 1.91) %
- Cmax, % Geometric Least Squares Means Ratio (90% CI), Combination vs. Alone [1, 8]: 1.50 (1.24, 1.80) %
- Ctau, % Geometric Least Squares Means Ratio (90% CI), Combination vs. Alone [1, 8]: 1.96 (1.61, 2.38) %
- Ctau, Mean (% CV) ([1]; Compound B analyte, Compound B 200 mg BID alone, fed (N = 8)): 201 (661) ng/ml
- Ctau, Mean (% CV) ([1]; Compound B analyte, Compound B 600 mg + Compound A 100/150 mg BID, fed (N = 14)): 1120 (72) ng/ml
- AUCtau, % Geometric Least Squares Means Ratio (90% CI), Combination vs. Alone [1, 9]: 1.51 (1.30, 1.75) %
- Cmax, % Geometric Least Squares Means Ratio (90% CI), Combination vs. Alone [1, 9]: 1.38 (1.20, 1.59) %
- Ctau, % Geometric Least Squares Means Ratio (90% CI), Combination vs. Alone [1, 9]: 1.74 (1.48, 2.03) %
- Ctau, Mean (% CV) ([1]; Compound B analyte, Compound B 600 mg BID alone, fed (N = 16)): 832 (82) ng/ml
- AUC [1, 10]: 4150 ng·h/mL
- Cmax [1, 10]: 618 ng/mL
- AUC [1, 11]: 12700 ng·h/mL
- Cmax [1, 11]: 1570 ng/mL
- AUC [1, 12]: 6750 ng·h/mL
- AUC [1, 13]: 16000 ng·h/mL
- Cmax [1, 12]: 915 ng/mL
- Cmax [1, 13]: 1900 ng/mL
- AKT phosphorylation in CLL cells [2]: inhibited or decreased
- S6 phosphorylation in CLL cells [3]: inhibited or decreased
- AKT phosphorylation in Ramos cells [4]: inhibited or decreased
- ERK phosphorylation in Ramos cells [5]: inhibit or reduced; also recorded: near complete inhibition or reduction
- tolerability [6]: generally well-tolerated
- IC50 (primary CLL cells; 72 h, read-out: median cell viability IC50): 3.7 µM
- IC50 (primary CLL cells; read-out: cell viability IC50 obtained in 7 samples (50%)): ≤ 2 µM

Molecule: CC[C@H](Nc1ncnc2[nH]cnc12)c1nc2cccc(F)c2c(=O)n1-c1ccccc1 [Compound A, (S)-2-(1-(9H-purin-6-ylamino)propyl)-5-fluoro-3-phenylquinazolin-4(3H)-one]
- production of CCL2, CCL3, and CCL4 by CLL cells (CCL2, CCL3, and CCL4): reduced
- Ctau, Mean (% CV) ([1]; Compound A analyte, Compound A 100 mg BID alone, fed (N = 16)): 127 (44) ng/ml
- Ctau, Mean (% CV) ([1]; Compound A analyte, Compound A 150 mg + Compound B 600 mg BID, fed (N = 6)): 411 (29) ng/ml
- AUCtau, % Geometric Least Squares Means Ratio (90% CI), Combination vs. Alone [1, 14]: 1.11 (1.00, 1.24) %
- Cmax, % Geometric Least Squares Means Ratio (90% CI), Combination vs. Alone [1, 14]: 1.06 (0.93, 1.21) %
- Ctau, % Geometric Least Squares Means Ratio (90% CI), Combination vs. Alone [1, 14]: 1.23 (1.03, 1.47) %
- Ctau, Mean (% CV) ([1]; Compound A analyte, Compound A 150 mg BID alone, fed (N = 7)): 320 (43) ng/ml
- Ctau, Mean (% CV) ([1]; Compound A analyte, Compound A 100 + Compound B 200 or 600 mg BID, fed (N = 16)): 170 (50) ng/ml
- AUCtau, % Geometric Least Squares Means Ratio (90% CI), Combination vs. Alone [1, 15]: 1.17 (1.13, 1.22) %
- Cmax, % Geometric Least Squares Means Ratio (90% CI), Combination vs. Alone [1, 15]: 1.13 (1.07, 1.20) %
- Ctau, % Geometric Least Squares Means Ratio (90% CI), Combination vs. Alone [1, 15]: 1.33 (1.20, 1.48) %
- exposure of Compound A, combination vs alone ([1]; healthy subjects): minor variations
- AUC [1, 16]: 8070 ng·h/mL
- Cmax [1, 16]: 1660 ng/mL
- AUC [1, 17]: 13800 ng·h/mL
- Cmax [1, 17]: 2680 ng/mL
- AUC [1, 18]: 15800 ng·h/mL
- AUC [1, 19]: 9510 ng·h/mL
- Cmax [1, 18]: 2870 ng/mL
- Cmax [1, 19]: 1880 ng/mL
- AKT phosphorylation in CLL cells [2]: inhibited or decreased
- S6 phosphorylation in CLL cells [3]: inhibited or decreased
- AKT phosphorylation in Ramos cells [4]: inhibited or decreased
- response of WSU-FSCCL parental cells to treatment (WSU-FSCCL parental cells): responsive
- cell viability / sensitivity of WSU-FSCCL resistant cells [7]: became resistant to the treatment
- adverse event leading to discontinuation of treatment ([6]; one individual, during Compound A 150 mg dosing): Grade 1 ALT/AST elevation
- tolerability [6]: generally well-tolerated

Molecule: ofatumumab
- median progression-free survival (PFS) (recurrent CLL): 5.8 months

Molecule: alemtuzumab
- median progression-free survival (PFS) (recurrent CLL): 4.7 months
